Experimental findings from patent publication US20260035407A1, “CYCLIC PEPTIDE DERIVATIVE, METHOD FOR PRODUCING SAME, AND COMPOSITION” (priority 2022, published 2026) are described below.

The subject of the first assay is Mouse astrocytes. The assay can be described thus: Cell proliferation assay (BrdU method) on mouse astrocytes. Type of assay: cell-based. Particulars: Astrocyte; mouse astrocytes, compound concentration 50 μM, 24 hours treatment in serum-free DMEM, BrdU; read-out: Cell proliferation activity, proliferative activity (%). The procedure: A screening test regarding the mouse astrocyte proliferation action of the compound synthesized in the Example described above was performed.
• Cells: Mouse astrocytes • Manufacturer: Cosmo Bio • Catalog No.: AST02C • Medium: 10% FBS, 1% PS, DMEM
• Cell proliferation assay (BrdU method)
Mouse astrocytes were put into sleep in a T-75 flask using a medium (10% FBS, 1% Penicillin-Streptomycin, DMEM (Low Glucose)) and cultured in a CO2 incubator (37° C., 5% CO2, ambient O2, wet, and the same applies below) for 4 days. Medium exchange was performed on the second day after sleep onset. The cells were detached using Trypsin-EDTA (0.05%) and phenol red, neutralized with a medium, and centrifuged (180×g, RT, 5 minutes), then seeded in a 96-well plate at 20,000 cells/0.1 mL/well using a medium, and cultured in a CO2 incubator. On the next day, the medium was replaced with serum-free DMEM (Low Glucose), and the cells were further cultured in a CO2 incubator for 24 hours.
Next, the medium was replaced with serum-free DMEM (Low Glucose) to which the compound was added or with compound-free-serum-free DMEM (Low Glucose), and the cells were further cultured in a CO2 incubator for 24 hours to treat the cells with the compound.
After completion of the compound treatment, cell proliferation assay was performed using Cell Proliferation ELISA, BrdU (colometric) (MERCK, Cat. No. 11647229001). 10 μL of a BrdU labeling solution (prepared by adding a BrdU-labeled reagent to a test substance-treated medium in an amount of 1/100 vol) was added thereto, and the mixture was cultured in a CO2 incubator for 4 hours. Next, after removing the medium, FixDenat was added at 200 μL/well and incubated at room temperature for 30 minutes. Next, FixDenat was removed and a POD-labeled anti-BrdU antibody reaction solution (prepared by adding 1/100 vol of a POD-labeled anti-BrdU antibody stock solution to an antibody diluent) was added at 100 μL/well, and the cells were incubated at room temperature for 2 hours. Next, antibodies were removed, and the wells were washed 3 times with 200 μL/well of a washing liquid. After washing, 100 μL/well of a substrate solution was added, incubation was performed at room temperature for 30 minutes, and an absorbance (370 nm, control wavelength 492 nm) was measured with a plate reader. A difference between the test substance-free group and the test substance-treated group was verified by Dunnett's test in which the test substance-free group was used as a control. The significance level was 5% for both groups.
For `CN[C@H]1Cc2ccc(O)c(c2)OC[C@@H](C(=O)N[C@@H](CCC(=O)O)C(=O)O)NC(=O)[C@H](C(C)C)NC1=O` [Compound 5], the activity at 50 µM fell in the range of 90 to 110%.

The same assay, now with this note: Astrocyte; mouse astrocytes, compound concentration 100 μM, 24 hours treatment in serum-free DMEM, BrdU; read-out: Cell proliferation activity, proliferative activity (%).
For the molecule `CC(C)[C@@H]1NC(=O)[C@@H](N)Cc2ccc(O)c(c2)OC[C@@H](C(=O)N[C@@H](CCC(=O)O)C(=O)O)NC1=O` [Compound 8], the activity at 100 µM was in the range of 90 to 110%.

Still in this assay, the particulars now being: Astrocyte; mouse astrocytes, compound concentration 200 μM, 24 hours treatment in serum-free DMEM, BrdU; read-out: Cell proliferation activity, proliferative activity (%).
In the case of `CN[C@H]1Cc2ccc(O)c(c2)OC[C@@H](C(=O)N[C@@H](CCC(=O)O)C(=O)O)NC(=O)CNC1=O` [Compound 3], the activity at 200 µM lay within 90 to 110%.
For `CN[C@H]1Cc2ccc(O)c(c2)OC[C@@H](C(=O)N[C@@H](CC(=O)O)C(=O)O)NC(=O)CNC1=O` [Compound 11], the activity at 200 µM was in the range of 110 to 130%.

The assay is the same for the next values; noted with them: Astrocyte; mouse astrocytes, compound concentration 400 μM, 24 hours treatment in serum-free DMEM, BrdU; read-out: Cell proliferation activity, proliferative activity (%).
For `CN[C@H]1Cc2ccc(O)c(c2)O[C@@H](C)[C@@H](C(=O)N[C@@H](CCC(=O)O)C(=O)O)NC(=O)CNC1=O` [Compound 4], the activity at 400 µM was in the range of 90 to 110%.
With `N[C@H]1Cc2ccc(O)c(c2)OC[C@@H](C(=O)N[C@@H](CCC(=O)O)C(=O)O)NC(=O)CNC1=O` [Compound 7], the activity at 400 µM fell in the range of 90 to 110%.
With `CN[C@H]1Cc2ccc(O)c(c2)O[C@@H](C)[C@@H](C(=O)N[C@@H](CC(=O)O)C(=O)O)NC(=O)CNC1=O` [Compound 12], the activity at 400 µM was in the range of 110 to 130%.

The assay is the same for the next values; noted with them: Mus musculus, Astrocyte, 24 h, read-out: Cell proliferation activity, proliferative activity (%).
As for `CC[C@@]1(C)Oc2cc(ccc2O)C[C@H](NC)C(=O)N[C@@H](C(C)C)C(=O)N[C@@H]1C(=O)N[C@@H](CCC(=O)O)C(=O)O` [Compound 1], the activity at 25 µM was over 150%.
As to `CC[C@@]1(C)Oc2cc(ccc2O)C[C@H](NC)C(=O)NCC(=O)N[C@@H]1C(=O)N[C@@H](CCC(=O)O)C(=O)O` [Compound 2], the activity at 25 µM was 110 to 130%.
Regarding `CC[C@@]1(C)Oc2cc(ccc2O)C[C@H](N)C(=O)N[C@@H](C(C)C)C(=O)N[C@@H]1C(=O)N[C@@H](CCC(=O)O)C(=O)O` [Compound 6], the activity at 200 µM fell in the range of 110 to 130%.
As to `CC[C@@]1(C)Oc2cc(ccc2O)C[C@H](NC)C(=O)N[C@@H](C(C)C)C(=O)N[C@@H]1C(=O)N[C@@H](CC(=O)O)C(=O)O` [Compound 9], the activity at 200 µM was over 150%.
On to `CC[C@@]1(C)Oc2cc(ccc2O)C[C@H](NC)C(=O)NCC(=O)N[C@@H]1C(=O)N[C@@H](CC(=O)O)C(=O)O` [Compound 10], for which the activity at 100 µM is 110 to 130%.
Consider `CC[C@@]1(C)Oc2cccc(c2)C[C@H](N)C(=O)NCC(=O)N[C@@H]1C(=O)N[C@@H](CCC(=O)O)C(=O)O` [Compound 13], for which the activity at 200 µM lay within 110 to 130%.
For `CC[C@@]1(C)Oc2cccc(c2)C[C@H](NC)C(=O)N[C@@H](C(C)C)C(=O)N[C@@H]1C(=O)N[C@@H](CCC(=O)O)C(=O)O` [Compound 14], the activity at 200 µM was 110 to 130%.
Turning to `CC[C@@]1(C)Oc2cc(ccc2O)C[C@H](N)C(=O)N[C@@H](C(C)C)C(=O)N[C@@H]1C(=O)N[C@@H](CC(=O)O)C(=O)O` [Compound 15], the activity at 200 µM was in the range of 90 to 110%.
In the case of `CN[C@H]1Cc2ccc(O)c(c2)OC(C)(C)[C@@H](C(=O)N[C@@H](CCC(=O)O)C(=O)O)NC(=O)[C@H](C(C)C)NC1=O` [Compound 16], the activity at 200 µM lay within 130 to 150%.
As for `CN[C@H]1Cc2ccc(O)c(c2)OC(C)(C)[C@@H](C(=O)N[C@@H](CC(=O)O)C(=O)O)NC(=O)[C@H](C(C)C)NC1=O` [Compound 17], the activity at 25 µM fell in the range of 90 to 110%.
In the case of `CC[C@@]1(C)Oc2cc(ccc2O)C[C@H](NC)C(=O)N[C@@H](C(C)C)C(=O)N[C@@H]1C(=O)NCCCC(=O)O` [Compound 18], the activity at 50 µM was 90 to 110%.
On to `CC(C)[C@@H]1NC(=O)[C@@H](N)Cc2ccc(O)c(c2)OC(C)(C)[C@@H](C(=O)N[C@@H](CCC(=O)O)C(=O)O)NC1=O` [Compound 19], for which the activity at 200 µM fell in the range of 110 to 130%.
For `CC[C@@]1(C)Oc2cc(ccc2O)C[C@H](NC)C(=O)N[C@@H](C(C)C)C(=O)N[C@@H]1C(=O)N[C@H](CCC(=O)O)C(=O)O` [Compound 20], the activity at 200 µM was in the range of 90 to 110%.
Turning to `CC[C@@]1(C)Oc2cc(ccc2O)C[C@H](NC)C(=O)N[C@@H](C(C)C)C(=O)N[C@@H]1C(=O)N[C@H](CC(=O)O)C(=O)O` [Compound 21], the activity at 50 µM was 90 to 110%.
As to `CC[C@@]1(C)Nc2cc(ccc2O)C[C@H](NC)C(=O)N[C@@H](C(C)C)C(=O)N[C@@H]1C(=O)N[C@@H](CCC(=O)O)C(=O)O` [Compound 22], the activity at 200 µM fell in the range of 90 to 110%.
Consider `CC[C@@]1(C)Oc2cc(ccc2O)C[C@H](N(C)C)C(=O)N[C@@H](C(C)C)C(=O)N[C@@H]1C(=O)N[C@@H](CCC(=O)O)C(=O)O` [Compound 23], for which the activity at 1000 µM fell in the range of 130 to 150%.
For the molecule `CC[C@@]1(C)Oc2cc(ccc2O)C[C@H](NC)C(=O)N[C@@H](Cc2ccccc2)C(=O)N[C@@H]1C(=O)N[C@@H](CCC(=O)O)C(=O)O` [Compound 24], the activity at 200 µM is 130 to 150%.
For `CC[C@@]1(C)Oc2cc(ccc2O)C[C@H](NC)C(=O)N[C@@H](CCC(=O)O)C(=O)N[C@@H]1C(=O)N[C@@H](CCC(=O)O)C(=O)O` [Compound 25], the activity at 50 µM was 90 to 110%.
On to `CC[C@@]1(C)Oc2cc(ccc2O)C[C@H](NC)C(=O)N[C@@H](CO)C(=O)N[C@@H]1C(=O)N[C@@H](CCC(=O)O)C(=O)O` [Compound 27], for which the activity at 200 µM lay in the range of 90 to 110%.
As for `CC[C@@]1(C)Oc2cc(ccc2O)C[C@H](NC)C(=O)N[C@@H]([C@@H](C)O)C(=O)N[C@@H]1C(=O)N[C@@H](CCC(=O)O)C(=O)O` [Compound 28], the activity at 50 µM was in the range of 110 to 130%.
With `CC[C@@]1(C)Oc2cc(ccc2O)C[C@H](NC)C(=O)N[C@@H](Cc2ccc(O)cc2)C(=O)N[C@@H]1C(=O)N[C@@H](CCC(=O)O)C(=O)O` [Compound 29], the activity at 200 µM fell in the range of 90 to 110%.
With `CC[C@@]1(C)Oc2cc(ccc2O)C[C@H](NC)C(=O)N[C@@H](CCCNC(=N)N)C(=O)N[C@@H]1C(=O)N[C@@H](CCC(=O)O)C(=O)O` [Compound 31], the activity at 100 µM was in the range of 110 to 130%.
With `CC[C@@]1(C)Oc2cc(ccc2OC)C[C@H](NC)C(=O)N[C@@H](C(C)C)C(=O)N[C@@H]1C(=O)N[C@@H](CCC(=O)O)C(=O)O` [Compound 37], the activity at 100 µM is 110 to 130%.
On the same count and under the same terms, next, `CC[C@@]1(C)Oc2cc(ccc2O)C[C@H](N(C)C)C(=O)N[C@@H](C(C)C)C(=O)N[C@@H]1C(=O)N[C@@H](CC(=O)O)C(=O)O` [Compound 39]: 130 to 150%.
As for `CC[C@@]1(C)Oc2cc(ccc2O)C[C@H](N(C)C)C(=O)N[C@@H](CCC(=O)O)C(=O)N[C@@H]1C(=O)N[C@@H](CCC(=O)O)C(=O)O` [Compound 40], the activity at 50 µM was 90 to 110%.
With `CC[C@@]1(C)Oc2cc(ccc2O)C[C@H](NC)C(=O)N(C)[C@@H](C(C)C)C(=O)N[C@@H]1C(=O)N[C@@H](CC(=O)O)C(=O)O` [Compound 41], the activity at 50 µM lay within 90 to 110%.
For `CC[C@@]1(C)Oc2cc(ccc2O)C[C@H](NC)C(=O)N(C)[C@@H](C(C)C)C(=O)N[C@@H]1C(=O)N[C@@H](CCC(=O)O)C(=O)O` [Compound 42], the activity at 200 µM is 130 to 150%.
With `CC[C@@]1(C)Oc2cc(ccc2O)C[C@H](NC)C(=O)N[C@@H](C(C)C)C(=O)N(C)[C@@H]1C(=O)N[C@@H](CCC(=O)O)C(=O)O` [Compound 43], the activity at 100 µM is 110 to 130%.
In the case of `CC[C@@]1(C)Oc2cc(ccc2O)C[C@H](NC)C(=O)N[C@@H](C(C)C)C(=O)N(C)[C@@H]1C(=O)N[C@@H](CC(=O)O)C(=O)O` [Compound 44], the activity at 200 µM was 110 to 130%.
With `CC[C@@]1(C)Oc2cc(ccc2O)C[C@H](NC)C(=O)N[C@H](C(C)C)C(=O)N[C@@H]1C(=O)N[C@@H](CC(=O)O)C(=O)O` [Compound 45], the activity at 50 µM fell in the range of 90 to 110%.
Consider `CC[C@@]1(C)Oc2cc(ccc2O)C[C@H](NC)C(=O)N[C@@H](C(C)C)C(=O)N[C@@H]1C(=O)N(C)[C@@H](CC(=O)O)C(=O)O` [Compound 47], for which the activity at 200 µM lay in the range of 130 to 150%.
For `CC[C@@]1(C)Oc2cc(ccc2O)C[C@H](NC)C(=O)N[C@@H](C)C(=O)N[C@@H]1C(=O)N[C@@H](CCC(=O)O)C(=O)O` [Compound 48], the activity at 100 µM lay in the range of 110 to 130%.
In the case of `CC[C@@]1(C)Oc2cc(ccc2O)C[C@H](NC)C(=O)N[C@@H](CC(C)C)C(=O)N[C@@H]1C(=O)N[C@@H](CCC(=O)O)C(=O)O` [Compound 49], the activity at 200 µM lay within 110 to 130%.
On to `CC[C@H](C)[C@@H]1NC(=O)[C@@H](NC)Cc2ccc(O)c(c2)O[C@](C)(CC)[C@@H](C(=O)N[C@@H](CCC(=O)O)C(=O)O)NC1=O` [Compound 50], for which the activity at 50 µM is 130 to 150%.
